Source: ChEMBL document CHEMBL1201862, “PubChem BioAssay data set” (2004)
Active and inactive are the calls of the source.

How the values were obtained:
[1] = target: T1, Disintegrin and metalloproteinase domain-containing protein 17 (Homo sapiens, UniProt P78536); test: exosite inhibitors of ADAM17, dose response, biochemical (AID 743260)
[2] = inhibition of ADAM10 peptide cleavage – biochemical, FRET peptide substrate, recombinant human ADAM10, selectivity assay for ADAM17 exosite inhibitor project, dose response (AID 743259);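 also: ADAM10 enzyme cleaving a FRET peptide substrate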
[3] = target: T1, Disintegrin and metalloproteinase domain-containing protein 17; test: inhibition of ADAM17 substrate cleavage – biochemical, quenched FRET substrate, counter-screen for ADAM10 exosite inhibitor project, dose response (AID 743253)
[4] = potency of ADAM10 substrate cleavage blockers – biochemical, QFRET, dose response (AID 743254);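 also: ADAM10 enzyme with the DM2 quenched FRET peptide as substrate; EDANS fluorescence gain as the protease cuts the substrate; inhibitor potency against ADAM10 proteolytic activity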
[5] = target: NAD-dependent protein deacylase sirtuin-5, mitochondrial (Homo sapiens, UniProt Q9NXA8); test: sirtuin-5 deacylation blockers, concentration series – biochemical, fluorescence imaging, cherry-pick, set 5, dose response (AID 720591);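 also: desuccinylation of succinyl peptide AMC substrate read as fluorescence after trypsin release; potency of inhibitors that lower fluorescence and may act on trypsin instead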
Sequence of NAD-dependent protein deacylase sirtuin-5, mitochondrial (Q9NXA8 whole entry): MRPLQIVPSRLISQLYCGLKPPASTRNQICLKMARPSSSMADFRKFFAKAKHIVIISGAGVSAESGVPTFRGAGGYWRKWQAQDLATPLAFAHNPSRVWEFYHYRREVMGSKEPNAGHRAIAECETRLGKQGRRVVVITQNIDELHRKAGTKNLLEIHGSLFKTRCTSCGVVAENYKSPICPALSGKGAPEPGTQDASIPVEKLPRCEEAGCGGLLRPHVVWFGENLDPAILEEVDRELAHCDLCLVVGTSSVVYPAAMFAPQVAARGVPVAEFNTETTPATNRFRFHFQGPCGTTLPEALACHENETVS

[6] = target: T2, Tyrosine-protein phosphatase non-receptor type 7 (Homo sapiens, UniProt P35236); test: HePTP tyrosine phosphatase activity blockers – biochemical, absorbance, leukemia target, primary screen (AID 521); type: functional
T2 sequence (P35236 whole entry): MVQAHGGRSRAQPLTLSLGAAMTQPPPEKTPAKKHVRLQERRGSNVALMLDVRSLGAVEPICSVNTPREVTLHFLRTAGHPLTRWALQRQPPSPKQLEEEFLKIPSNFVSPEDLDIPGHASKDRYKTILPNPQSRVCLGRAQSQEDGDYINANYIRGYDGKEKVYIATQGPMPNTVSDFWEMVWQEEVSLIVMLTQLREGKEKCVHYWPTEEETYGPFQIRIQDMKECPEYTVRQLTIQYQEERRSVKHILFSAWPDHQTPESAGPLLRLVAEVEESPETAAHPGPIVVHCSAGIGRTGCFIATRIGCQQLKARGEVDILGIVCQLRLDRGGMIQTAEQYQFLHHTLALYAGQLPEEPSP

[7] = target: T3, Fructose-bisphosphate aldolase (Mycobacterium tuberculosis, UniProt P9WQA3); test: Fluorescence-based biochemical high throughput dose response assay for inhibitors of the fructose-bisphosphate aldolase (FBA) of M. tuberculosis.; type: functional
T3 sequence (P9WQA3 whole entry): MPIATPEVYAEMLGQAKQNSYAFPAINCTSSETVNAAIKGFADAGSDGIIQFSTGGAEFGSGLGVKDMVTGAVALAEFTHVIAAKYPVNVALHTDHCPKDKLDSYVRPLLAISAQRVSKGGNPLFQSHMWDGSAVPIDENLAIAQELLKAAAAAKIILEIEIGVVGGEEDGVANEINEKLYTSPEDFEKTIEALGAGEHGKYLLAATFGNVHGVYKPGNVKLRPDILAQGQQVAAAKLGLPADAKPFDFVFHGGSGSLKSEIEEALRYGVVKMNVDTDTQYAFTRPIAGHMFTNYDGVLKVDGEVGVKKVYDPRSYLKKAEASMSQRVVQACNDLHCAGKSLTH

fMet-Leu-Phe receptor = target: T4, fMet-Leu-Phe receptor (Homo sapiens, UniProt P21462); test: formyl peptide receptor binders – dose response (AID 519); type: functional
T4 sequence (P21462 whole entry): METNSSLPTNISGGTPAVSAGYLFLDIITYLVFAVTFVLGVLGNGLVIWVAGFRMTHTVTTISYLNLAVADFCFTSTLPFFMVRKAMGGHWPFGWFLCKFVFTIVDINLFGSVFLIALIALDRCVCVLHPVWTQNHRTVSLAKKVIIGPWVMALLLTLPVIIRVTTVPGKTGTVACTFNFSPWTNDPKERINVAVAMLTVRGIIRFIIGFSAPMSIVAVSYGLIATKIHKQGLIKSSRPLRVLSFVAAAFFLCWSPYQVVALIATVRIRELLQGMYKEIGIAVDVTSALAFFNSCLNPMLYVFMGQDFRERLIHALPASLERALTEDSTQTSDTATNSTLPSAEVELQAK

[8] = system: Streptococcus sp. 'group A'; test: Streptococcus pyogenes SK(-)GAS viability under kanamycin – luminescence, BacTiterGlo, confirmation, counter-screen for streptokinase expression inhibitor project, dose response (AID 1900); type: functional, organism-based
Beta-lactamase [9] = target: T5, Beta-lactamase (Pseudomonas aeruginosa, UniProt Q79MP6); test: […] counterscreen for selective VIM-2 inhibitors: dose response biochemical high throughput screening assay to identify inhibitors of IMP-1 metallo-beta-lactamase.
T5 sequence (Q79MP6 whole entry): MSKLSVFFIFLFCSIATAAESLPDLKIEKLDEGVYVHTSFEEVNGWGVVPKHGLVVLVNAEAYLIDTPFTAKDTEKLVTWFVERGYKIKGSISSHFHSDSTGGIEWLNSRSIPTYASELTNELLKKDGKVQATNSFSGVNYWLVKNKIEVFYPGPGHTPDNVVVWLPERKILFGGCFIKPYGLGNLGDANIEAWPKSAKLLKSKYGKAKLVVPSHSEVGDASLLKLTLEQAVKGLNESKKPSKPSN

Streptokinase A = target: T6, Streptokinase A (Streptococcus pyogenes serotype M1, UniProt P10520); test: viability-normalized secreted streptokinase activity reduction – plasminogen activation absorbance, OD405, dose response (AID 1914); type: functional, Streptococcus pyogenes M1 GAS;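 also: secreted streptokinase activity via plasminogen activation per viability signal from cell pellet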
T6 sequence (P10520 whole entry): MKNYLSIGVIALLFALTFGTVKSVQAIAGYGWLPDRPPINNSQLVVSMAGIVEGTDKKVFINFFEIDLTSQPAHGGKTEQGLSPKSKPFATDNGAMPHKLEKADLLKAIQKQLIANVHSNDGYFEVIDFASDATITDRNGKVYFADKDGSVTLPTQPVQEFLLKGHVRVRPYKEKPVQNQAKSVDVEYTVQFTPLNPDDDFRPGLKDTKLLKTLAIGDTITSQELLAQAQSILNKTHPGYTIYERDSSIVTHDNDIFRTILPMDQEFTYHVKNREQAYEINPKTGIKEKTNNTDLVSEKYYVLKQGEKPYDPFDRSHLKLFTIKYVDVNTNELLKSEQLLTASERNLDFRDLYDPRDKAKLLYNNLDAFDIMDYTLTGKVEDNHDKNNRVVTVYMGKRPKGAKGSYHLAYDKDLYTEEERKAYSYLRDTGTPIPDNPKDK

Beta-lactamase [10] = target: T5, Beta-lactamase; test: inhibition of IMP-1 beta-lactamase activity – biochemical, epi-absorbance, selectivity assay for VIM-2 inhibitor project, dose response (AID 1920)
Beta-lactamase [11] = target: Beta-lactamase (Salmonella choleraesuis (strain SC-B67), UniProt Q5J463); test: Epi-absorbance-based counterscreen for selective VIM-2 inhibitors: dose response biochemical high throughput screening assay to identify inhibitors of TEM-1 serine-beta-lactamase.
Sequence of Beta-lactamase (Salmonella choleraesuis (strain SC-B67), UniProt Q5J463) (Q5J463 whole entry): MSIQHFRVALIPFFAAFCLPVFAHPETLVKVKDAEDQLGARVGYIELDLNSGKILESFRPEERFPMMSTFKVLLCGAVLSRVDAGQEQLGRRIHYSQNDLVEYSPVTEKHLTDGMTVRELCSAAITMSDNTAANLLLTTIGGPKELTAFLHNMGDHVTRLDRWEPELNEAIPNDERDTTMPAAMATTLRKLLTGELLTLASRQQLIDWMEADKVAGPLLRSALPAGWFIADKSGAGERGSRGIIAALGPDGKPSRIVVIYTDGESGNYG

Streptococcus = test: GAS UMAA2166 growth inhibition – luminescence, BacTiterGlo, counter-screen for streptokinase expression inhibitor project, dose response (AID 1915); type: functional, organism-based;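 also: potency for reduction of bacterial viability or growth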
[12] = target: T7, Voltage-gated N-type calcium channel alpha-1B subunit/Amyloid beta A4 precursor protein-binding family A member 1 (Homo sapiens, UniProt Q00975+Q02410); type: protein assay
T7 sequence (Q00975 whole entry): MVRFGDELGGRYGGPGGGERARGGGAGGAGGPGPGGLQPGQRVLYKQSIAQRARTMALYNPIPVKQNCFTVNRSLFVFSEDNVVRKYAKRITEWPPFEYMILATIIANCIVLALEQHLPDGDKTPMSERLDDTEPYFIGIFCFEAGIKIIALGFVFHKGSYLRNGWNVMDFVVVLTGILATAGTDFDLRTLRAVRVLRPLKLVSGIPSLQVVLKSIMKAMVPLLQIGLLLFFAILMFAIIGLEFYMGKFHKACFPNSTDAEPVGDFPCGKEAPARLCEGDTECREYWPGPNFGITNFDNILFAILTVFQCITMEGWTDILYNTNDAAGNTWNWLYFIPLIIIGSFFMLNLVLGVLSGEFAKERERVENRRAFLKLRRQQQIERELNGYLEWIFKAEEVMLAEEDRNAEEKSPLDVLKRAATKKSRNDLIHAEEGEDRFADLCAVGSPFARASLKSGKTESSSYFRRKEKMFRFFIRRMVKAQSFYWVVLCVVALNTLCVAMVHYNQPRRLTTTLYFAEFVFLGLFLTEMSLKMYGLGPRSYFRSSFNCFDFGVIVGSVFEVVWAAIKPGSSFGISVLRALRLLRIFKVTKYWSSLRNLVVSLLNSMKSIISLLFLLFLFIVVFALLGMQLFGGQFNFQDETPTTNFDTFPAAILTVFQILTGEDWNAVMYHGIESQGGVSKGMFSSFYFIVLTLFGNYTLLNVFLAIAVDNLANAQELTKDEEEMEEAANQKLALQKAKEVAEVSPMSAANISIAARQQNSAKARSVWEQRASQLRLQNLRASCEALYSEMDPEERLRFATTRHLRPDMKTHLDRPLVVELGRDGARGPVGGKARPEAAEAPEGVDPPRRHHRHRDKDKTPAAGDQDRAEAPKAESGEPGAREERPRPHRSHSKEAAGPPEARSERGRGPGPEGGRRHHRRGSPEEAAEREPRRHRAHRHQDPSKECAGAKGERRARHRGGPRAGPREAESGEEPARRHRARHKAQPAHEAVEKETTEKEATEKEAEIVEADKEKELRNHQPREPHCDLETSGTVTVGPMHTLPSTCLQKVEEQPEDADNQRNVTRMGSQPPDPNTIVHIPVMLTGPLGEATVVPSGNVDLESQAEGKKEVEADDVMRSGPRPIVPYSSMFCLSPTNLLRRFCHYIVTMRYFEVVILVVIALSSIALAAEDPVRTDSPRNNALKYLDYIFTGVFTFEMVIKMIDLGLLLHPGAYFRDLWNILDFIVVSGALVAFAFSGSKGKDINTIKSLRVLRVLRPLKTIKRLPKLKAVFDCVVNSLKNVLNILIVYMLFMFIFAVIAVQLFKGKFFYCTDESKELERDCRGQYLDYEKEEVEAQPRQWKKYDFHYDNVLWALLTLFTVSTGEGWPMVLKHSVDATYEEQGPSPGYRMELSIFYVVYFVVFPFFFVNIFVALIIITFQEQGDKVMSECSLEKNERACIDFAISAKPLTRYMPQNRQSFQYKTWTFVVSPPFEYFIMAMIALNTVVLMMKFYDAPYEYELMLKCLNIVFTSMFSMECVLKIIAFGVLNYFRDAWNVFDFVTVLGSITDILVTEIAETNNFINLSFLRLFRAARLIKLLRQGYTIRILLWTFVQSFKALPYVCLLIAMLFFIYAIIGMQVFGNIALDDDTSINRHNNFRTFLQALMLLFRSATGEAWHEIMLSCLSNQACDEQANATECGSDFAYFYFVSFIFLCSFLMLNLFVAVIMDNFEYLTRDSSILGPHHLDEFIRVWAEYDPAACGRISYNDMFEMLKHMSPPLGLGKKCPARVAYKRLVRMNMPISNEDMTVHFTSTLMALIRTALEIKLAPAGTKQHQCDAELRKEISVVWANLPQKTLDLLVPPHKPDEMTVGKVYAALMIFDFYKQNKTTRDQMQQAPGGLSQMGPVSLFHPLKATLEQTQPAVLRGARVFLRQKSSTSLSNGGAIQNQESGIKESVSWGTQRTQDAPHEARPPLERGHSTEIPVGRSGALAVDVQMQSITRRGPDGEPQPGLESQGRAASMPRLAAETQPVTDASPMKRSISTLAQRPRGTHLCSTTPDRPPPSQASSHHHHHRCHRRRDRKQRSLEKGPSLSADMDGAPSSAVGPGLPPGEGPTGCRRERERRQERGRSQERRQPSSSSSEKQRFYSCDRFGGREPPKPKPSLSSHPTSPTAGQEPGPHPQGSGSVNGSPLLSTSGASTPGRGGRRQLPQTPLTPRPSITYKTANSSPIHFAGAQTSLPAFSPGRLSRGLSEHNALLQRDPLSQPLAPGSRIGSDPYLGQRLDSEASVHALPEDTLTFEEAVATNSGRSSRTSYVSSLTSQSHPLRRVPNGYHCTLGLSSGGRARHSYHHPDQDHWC
T7 sequence (Q02410 whole entry): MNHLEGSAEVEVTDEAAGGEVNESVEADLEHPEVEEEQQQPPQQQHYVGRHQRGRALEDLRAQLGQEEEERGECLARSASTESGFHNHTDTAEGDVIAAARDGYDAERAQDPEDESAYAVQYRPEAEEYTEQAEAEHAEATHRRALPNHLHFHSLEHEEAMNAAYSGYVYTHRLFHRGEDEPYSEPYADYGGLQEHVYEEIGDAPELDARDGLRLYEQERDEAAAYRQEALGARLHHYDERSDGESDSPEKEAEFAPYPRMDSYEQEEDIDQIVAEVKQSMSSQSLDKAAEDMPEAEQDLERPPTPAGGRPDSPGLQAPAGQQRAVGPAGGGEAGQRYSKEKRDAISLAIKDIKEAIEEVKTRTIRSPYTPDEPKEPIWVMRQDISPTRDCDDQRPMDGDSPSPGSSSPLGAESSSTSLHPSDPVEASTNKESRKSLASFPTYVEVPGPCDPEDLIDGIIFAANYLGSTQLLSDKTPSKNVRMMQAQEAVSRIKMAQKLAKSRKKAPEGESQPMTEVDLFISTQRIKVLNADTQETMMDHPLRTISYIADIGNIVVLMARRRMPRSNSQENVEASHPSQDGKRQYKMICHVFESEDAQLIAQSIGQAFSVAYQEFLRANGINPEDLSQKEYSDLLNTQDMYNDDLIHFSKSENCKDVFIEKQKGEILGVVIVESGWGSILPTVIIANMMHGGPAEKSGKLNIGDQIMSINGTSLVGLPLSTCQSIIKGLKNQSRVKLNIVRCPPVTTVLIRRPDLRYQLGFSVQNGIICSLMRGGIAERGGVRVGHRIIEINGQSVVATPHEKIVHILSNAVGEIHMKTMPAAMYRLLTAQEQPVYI

[13] = target: T7, Voltage-gated N-type calcium channel alpha-1B subunit/Amyloid beta A4 precursor protein-binding family A member 1; type: protein assay; remark: listed apart in the source
[14] = target: T8, Probable nicotinate-nucleotide adenylyltransferase (Staphylococcus aureus (strain N315), UniProt P65502); type: functional, Staphylococcus aureus subsp. aureus N315; settings: read-out: IC50_Mean;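 as to IC50 Mean: confirmatory dose-response retesting of NadD inhibitor hits first found in an ultra-high-throughput screen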
T8 sequence (P65502 whole entry): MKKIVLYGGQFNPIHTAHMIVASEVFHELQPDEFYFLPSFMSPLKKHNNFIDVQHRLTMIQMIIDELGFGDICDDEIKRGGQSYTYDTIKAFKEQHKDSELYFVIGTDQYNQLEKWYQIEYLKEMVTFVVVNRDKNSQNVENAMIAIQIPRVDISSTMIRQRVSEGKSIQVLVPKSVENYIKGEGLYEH

[15] = target: T8, Probable nicotinate-nucleotide adenylyltransferase; type: functional, Staphylococcus aureus subsp. aureus N315
[16] = target: T9, Zinc finger protein mex-5 (Caenorhabditis elegans, UniProt Q9XUB2); test: potency of MEX-5 RNA-binding blockers – biochemical, C. elegans, fluorescence polarization, dose response (AID 1960)
T9 sequence (Q9XUB2 whole entry): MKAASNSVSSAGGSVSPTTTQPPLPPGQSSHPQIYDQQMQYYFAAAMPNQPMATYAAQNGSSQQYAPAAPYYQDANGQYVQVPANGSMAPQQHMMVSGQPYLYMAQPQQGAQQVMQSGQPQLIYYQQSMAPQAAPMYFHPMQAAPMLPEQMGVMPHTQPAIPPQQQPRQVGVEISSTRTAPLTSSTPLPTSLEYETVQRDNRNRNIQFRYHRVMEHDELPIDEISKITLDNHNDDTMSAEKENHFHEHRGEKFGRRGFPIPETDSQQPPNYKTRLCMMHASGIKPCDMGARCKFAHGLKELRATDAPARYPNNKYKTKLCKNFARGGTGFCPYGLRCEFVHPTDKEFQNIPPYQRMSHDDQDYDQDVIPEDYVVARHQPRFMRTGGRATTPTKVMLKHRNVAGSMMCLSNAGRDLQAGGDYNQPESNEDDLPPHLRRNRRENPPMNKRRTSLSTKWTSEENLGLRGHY

[17] = target: T10, RNA-binding protein pos-1 (Caenorhabditis elegans, UniProt G5EF15); test: disruptors of C. elegans POS-1 RNA interaction – biochemical, fluorescence polarization, dose response (AID 1964);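 also: purified POS-1 fused to maltose binding protein made in E. coli; potency of compounds blocking POS-1 binding to fluorescent RNA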
T10 sequence (G5EF15 whole entry): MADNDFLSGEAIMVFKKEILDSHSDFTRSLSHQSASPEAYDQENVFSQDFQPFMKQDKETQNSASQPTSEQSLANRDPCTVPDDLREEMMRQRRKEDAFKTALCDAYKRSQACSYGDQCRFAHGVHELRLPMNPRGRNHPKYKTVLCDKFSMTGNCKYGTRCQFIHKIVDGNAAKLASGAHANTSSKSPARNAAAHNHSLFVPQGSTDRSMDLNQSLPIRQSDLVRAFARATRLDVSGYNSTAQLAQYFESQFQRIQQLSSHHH

[18] = Luminescence Cell-Based Dose Retest to Confirm Inhibitors of Cancer Stem Cells. [Related pubchem assays (depositor defined):AID2717, AID2721]; type: functional; settings: Homo sapiens
[19] = target: Heat shock protein HSP 90-alpha (Homo sapiens, UniProt P07900); type: functional, organism-based
[20] = target: T11, COUP transcription factor 2 (Homo sapiens, UniProt P24468); test: Luminescence-based cell-based high throughput dose response assay to identify inhibitors of COUP-TFII (NR2F2).; type: functional;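 also: HEK293 cells transiently cotransfected with COUP-TFII expression vector and reporter; luciferase reporter luminescence driven by COUP-TFII from the pX2-168 reporter plasmid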
T11 sequence (P24468 whole entry): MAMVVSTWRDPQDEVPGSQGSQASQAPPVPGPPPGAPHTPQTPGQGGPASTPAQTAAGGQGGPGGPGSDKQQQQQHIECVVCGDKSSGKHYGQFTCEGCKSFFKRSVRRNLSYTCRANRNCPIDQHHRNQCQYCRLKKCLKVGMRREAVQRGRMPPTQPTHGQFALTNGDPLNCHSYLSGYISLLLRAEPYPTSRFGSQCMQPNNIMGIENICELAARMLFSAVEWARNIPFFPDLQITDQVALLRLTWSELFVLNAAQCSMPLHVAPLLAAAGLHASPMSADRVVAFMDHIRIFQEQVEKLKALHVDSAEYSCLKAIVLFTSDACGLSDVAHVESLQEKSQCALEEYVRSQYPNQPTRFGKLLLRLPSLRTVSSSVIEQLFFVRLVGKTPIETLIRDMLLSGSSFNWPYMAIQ

Vero = test: viability of Vero cells under compound – cytotoxicity control for flavivirus capping enzyme inhibitors (AID 588742); type: functional; settings: Chlorocebus sabaeus
[21] = target: Protein-tyrosine kinase 2-beta (Homo sapiens, UniProt Q14289);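 also: potency of inhibitors of PYK2 kinase phosphorylation of poly-GT substrate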
[22] = Dd2 parasite growth inhibition in erythrocytes – SYBR Green, dry powder samples, set 9, dose response (AID 1159568); type: functional, cell-based

T1 sequence (P78536 whole entry, the tested form may be a part): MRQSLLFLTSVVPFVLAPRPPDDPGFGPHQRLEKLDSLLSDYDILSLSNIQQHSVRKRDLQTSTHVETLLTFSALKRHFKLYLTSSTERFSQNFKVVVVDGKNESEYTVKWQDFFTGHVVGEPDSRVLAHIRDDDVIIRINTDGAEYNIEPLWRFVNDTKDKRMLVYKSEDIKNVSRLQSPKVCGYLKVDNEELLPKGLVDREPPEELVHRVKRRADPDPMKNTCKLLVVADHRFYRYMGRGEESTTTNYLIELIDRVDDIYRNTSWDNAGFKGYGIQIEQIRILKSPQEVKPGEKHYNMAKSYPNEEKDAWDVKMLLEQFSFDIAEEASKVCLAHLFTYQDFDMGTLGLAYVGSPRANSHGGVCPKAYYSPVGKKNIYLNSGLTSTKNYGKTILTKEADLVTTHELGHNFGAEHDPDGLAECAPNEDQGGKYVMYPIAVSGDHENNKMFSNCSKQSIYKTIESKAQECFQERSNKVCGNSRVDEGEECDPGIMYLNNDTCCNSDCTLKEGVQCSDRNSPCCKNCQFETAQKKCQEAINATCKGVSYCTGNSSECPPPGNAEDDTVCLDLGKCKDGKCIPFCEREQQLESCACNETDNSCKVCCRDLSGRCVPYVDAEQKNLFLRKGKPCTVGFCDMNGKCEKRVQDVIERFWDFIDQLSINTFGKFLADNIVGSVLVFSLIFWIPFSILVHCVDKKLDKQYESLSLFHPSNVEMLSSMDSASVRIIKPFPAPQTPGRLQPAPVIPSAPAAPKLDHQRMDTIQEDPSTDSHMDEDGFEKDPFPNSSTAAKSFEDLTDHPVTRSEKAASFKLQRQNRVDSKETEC

COc1ccc(S[C@@H](CCN2CC[C@H](C)CCC2=O)c2ccccc2)cc1
IC50 [1]: > 69.5 µM (inactive) | IC50 [2]: 19.3 µM (inactive)

COc1cccc(C(=O)NNC(=O)C(=O)Nc2ccc(C)c(Cl)c2)c1
IC50 [3]: > 69.5 µM (inactive) | IC50 [4]: 8.71 µM (active)

COc1ccc(C(=O)C2=C(O)C(=O)N(CCCN3CCOCC3)C2c2ccc(OC)cc2)cc1 (stereo unspecified)
AC50 [5]: > 30 µM (inactive)

CC1(C)CC(=O)c2cnc(NC(=O)c3ccco3)nc2C1
IC50 [6]: > 100 µM (not active)

CCOC(=O)COc1ccc2c(c1)C(=O)CC(C)(C)O2
IC50 [7]: 1.55 µM (active)

CC(C)NC(=O)c1cccc(Br)c1
AC50 [5]: > 30 µM (inactive)

Cc1cccc(Nc2ccccc2C(=O)NCc2ccco2)c1C
Ki (fMet-Leu-Phe receptor): > 66.7 µM (inactive)

Cc1cc(C)n(-c2nc(SCC(=O)O)c3c4c(sc3n2)COC(C)(C)C4)n1
EC50 [8]: 8.1 µM (active) | IC50 (Beta-lactamase [9]): > 59.6 µM (inactive) | EC50 (Streptokinase A): > 150 µM (not active) | IC50 (Beta-lactamase [10]): > 59.6 µM (inactive) | IC50 (Beta-lactamase [11]): > 59.6 µM (inactive) | EC50 (Streptococcus): > 150 µM (not active)

COc1ccc(CC(=O)Nc2ccc(-c3nnc(-c4ccc(C)cc4)o3)cc2)cc1
IC50 [6]: > 100 µM (not active) | Ki (fMet-Leu-Phe receptor): > 66.7 µM (inactive) | IC50 [12]: > 50 µM (inactive) | IC50 [13]: 14.4 µM (active)

CCCCC1=CC2=CC(=O)C(C)(OC(=O)CCc3ccccc3)C(=O)C2=CO1 (stereo unspecified)
IC50 [14]: 19.8 µM (active) | IC50 [15]: 8.81 µM (active) | EC50 [16]: > 150 µM (not active) | EC50 [17]: 41.6 µM (active)

O=[N+]([O-])c1ccc(-c2ccccc2)c([As](=O)(O)O)c1
IC50 (Beta-lactamase [9]): > 59.6 µM (inactive) | IC50 (Beta-lactamase [10]): > 59.6 µM (inactive) | IC50 (Beta-lactamase [11]): > 59.6 µM (inactive)

Cc1ccccc1N=C(NOCc1ccc(Cl)cc1Cl)c1nonc1N
AC50 [18]: 3.53 µM (active) | IC50 [4]: 13.3 µM (inactive)

Cc1ccccc1NC(=NOCc1ccc(Cl)cc1Cl)c1nonc1N
IC50 [3]: > 69.5 µM (inactive)

CC(C)(C)OC(=O)N1CCC[C@H]1c1nnc(SCc2cccc(Cl)c2)o1
AC50 [5]: > 30 µM (inactive)

O=C(/C=C/c1ccc([N+](=O)[O-])cc1)c1ccccc(=O)c1O
IC50 [3]: 11.8 µM (inactive) | AC50 [19]: 1.54 µM (active) | IC50 [20]: 9.51 µM (active) | CC50 (Vero): 1.87 µM (active) | IC50 [4]: 8.35 µM (active)

CO/C(O)=C1\C(C)=NC2=C(C(=O)CC(c3cccs3)C2)C1c1ccsc1 (stereo unspecified)
IC50 [21]: > 69.5 µM (not active)

COC(=O)[C@]12C[C@H](CC(=O)NCCCCc3ccccc3)C(=O)N(Cc3cccc4ccccc34)C1=C[C@H](C(C)C)O[C@@H]2C1CC1
IC50 [1]: > 69.5 µM (inactive) | IC50 [2]: > 7.72 µM (active)

CN(C)/C=N/c1nc2nccc(-c3cccc(Cl)c3)n2n1
IC50 [7]: 1.15 µM (active)

C[C@H]1CCCCO[C@@H](CN(C)S(=O)(=O)c2ccc(F)cc2)[C@@H](C)CN([C@@H](C)CO)C(=O)c2cc(N(C)C)ccc2O1
AC50 [22]: 2.54 µM (active)

N#C[C@H]1N[C@H](CO)[C@H]1c1ccc(C#CC2CCCCC2)cc1
AC50 [22]: 12.9 µM (active)
